These results are taken from patent US8546608B2, “Proteasome inhibitors and methods of using the same” (Cephalon, Inc., priority 2003, dated 2013).

Structures can show the parent of a compound that is named as a salt. Where two headings read alike, the source gives them in different places.

Data set [1] deals with T1, 20S Human Erythrocyte Proteasome (HEP) (Homo sapiens, UniProt P20618+P28074).
T1 construct: 20S Human Erythrocyte Proteasome (HEP), purchased from Immatics Biotechnologies Inc; purchased Immatics Biotechnologies Inc., Tübingen, Germany; host or cells: human erythrocytes (natural source)
The data set can be described thus: Chymotrypsin-like activity of 20S Human Erythrocyte Proteasome (HEP), IC50 determination. In kind it is biochemical. The following applies: assay of Example C, inhibition of HEP. In short, it runs like this: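 20S proteasome at 0.2 μg/mL (about 0.6 nM catalytic sites) in 20 mM Tris with 0.04% SDS, preincubated 15 min at 37° C with inhibitor before Suc-LLVY-AMC (100 μM final). AMC fluorescence read in the linear range; triplicates, IC50 from concentration series.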

The target in data set [2] is T2, proteasome in Molt-4 cells (human leukemia) (Homo sapiens, UniProt P20618+P28074).
T2 sequence (P28074 60-263): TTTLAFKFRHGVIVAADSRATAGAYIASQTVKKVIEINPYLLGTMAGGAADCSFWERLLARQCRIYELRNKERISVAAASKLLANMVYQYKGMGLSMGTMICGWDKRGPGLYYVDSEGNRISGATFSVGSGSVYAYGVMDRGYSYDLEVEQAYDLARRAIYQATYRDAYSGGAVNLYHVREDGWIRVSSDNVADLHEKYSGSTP
T2 sequence (P20618 29-241): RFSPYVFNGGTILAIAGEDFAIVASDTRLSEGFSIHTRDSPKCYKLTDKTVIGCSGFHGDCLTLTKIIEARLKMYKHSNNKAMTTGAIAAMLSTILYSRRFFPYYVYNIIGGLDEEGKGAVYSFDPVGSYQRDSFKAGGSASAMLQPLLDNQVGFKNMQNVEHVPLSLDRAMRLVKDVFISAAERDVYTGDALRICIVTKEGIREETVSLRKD
In kind it is cell-based. In outline: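 Intact Molt-4 cells (6×10^6 cells/mL) in HEPES-buffered saline were preincubated with inhibitor 15 min at 37 °C, then given cell-permeable MeOSuc-FLF-AFC at 25 μM final.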

Setting [3] is: assay of Example E, inhibition of MOLT4; read-out: MOLT4 (EC50).

For orientation: melting point means the temperature, or range, at which the solid turns liquid. For the compound `CCCCc1ccc(C(=O)N[C@@H](CNC(=O)c2ccc(-n3cncn3)cc2)C(=O)N[C@@H](CC(C)C)B(O)O)cc1` (as salt: hydrochloride) [E.5.40, Boronic acid, [(1R)-1-[[(2S)-3-(4-(1H-1,2,4-triazol-1-yl)benzoylamide)]-2-[(4-butylbenzoyl)amino]-1H-oxopropyl]amino]-3-methylbutyl] hydrochloride], the melting point lay in the range of 192 to 195 °C.

In general, IC50 refers to the concentration that inhibits the measured activity by half. High values mean lower potency, low ones higher potency. One may read the EC50 as the concentration at which the effect is half-maximal. `CC(C)C[C@H](NC(=O)[C@@H](NC(=O)c1cnccn1)[C@@H](C)O)B(O)O` [E.4.1, Boronic acid, [(1R)-1-[[(2S,3R)-3-hydroxy-2-[(2-pyrazinecarbonyl)amino]-1-oxobutyl]amino]-3-methylbutyl]]: the 50% inhibitory concentration (IC50) in data set [1] is below 100 nM. In addition, the EC50 in data set [2] (setting [3]) lay in the range of 200 to 2000 nM.

In turn, `CCCCc1ccc(C(=O)N[C@H](C(=O)N[C@@H](CC(C)C)B(O)O)[C@@H](C)O)nc1` [E.4.2, Boronic acid, [(1R)-1-[[(2S,3R)-3-hydroxy-2-[(5-butyl-pyridine-2-carbonyl)amino]-1-oxobutyl]amino]-3-methylbutyl]] returned an IC50 in data set [1] below 100 nM. Also, in data set [2] (setting [3]), the EC50 is below 200 nM.

Regarding `CCCCc1ccc(C(=O)N[C@@H](CNC(=O)c2cnccn2)C(=O)N[C@@H](CC(C)C)B(O)O)cc1` [E.5, Boronic Acid, [(1R)-1-[[(2S)-3-(2-pyrazincarbonylamino)-2-[(4-butylbenzoylamino)]-1-oxopropyl]amino]-3-methylbutyl]], the IC50 in data set [1] was below 10 nM. Further, the EC50 in data set [2] (setting [3]) was below 200 nM.

On to `CCCCCCCCCC(=O)N[C@@H](CNC(C)=O)C(=O)N[C@@H](CC(C)C)B(O)O` [E.5.1, Boronic acid, [(1R)-1-[[(2S)-3-(acetylamino)-2-[(decanoylamino)]-1-oxopropyl]amino]-3-methylbutyl]], for which the half-maximal inhibitory concentration (IC50) in data set [1] was below 10 nM. In data set [2] (setting [3]), the EC50 was below 200 nM.

Compound `CCCCc1ccc(C(=O)N[C@@H](CNC(=O)NCCC)C(=O)N[C@@H](CC(C)C)B(O)O)cc1` [E.5.2, Boronic acid, [(1R)-1-[[(2S)-3-(propylureido)-2-[(4-butyl)-benzoylamino]-1-oxopropyl]amino]-3-methylbutyl]] had an IC50 in data set [1] below 10 nM. Moreover, in data set [2] (setting [3]), the half-maximal effective concentration (EC50) was below 200 nM.

`CCCCc1ccc(C(=O)N[C@@H](CNC(=O)c2ccc(C)cc2)C(=O)N[C@@H](CC(C)C)B(O)O)cc1` [E.5.5] had an IC50 in data set [1] below 10 nM. Further, in data set [2] (setting [3]), the half-maximal effective concentration (EC50) was below 200 nM.

In the case of `CCCCc1ccc(C(=O)N[C@@H](CNC(=O)c2cccs2)C(=O)N[C@@H](CC(C)C)B(O)O)cc1` [E.5.7, Boronic acid, [(1R)-1-[[(2S)-3-[(thien-2-ylcarbonyl)amino]-2-[(4-butylbenzoylamino)]-1-oxopropyl]amino]-3-methylbutyl]], in data set [1], the IC50 is below 10 nM. The EC50 in data set [2] (setting [3]) was below 200 nM.

`CCCCCCCCCC(=O)N[C@@H](CNC(=O)c1cccs1)C(=O)N[C@@H](CC(C)C)B(O)O` [E.5.9] had an IC50 in data set [1] below 10 nM. The EC50 in data set [2] (setting [3]) is below 200 nM.

`CCCCCC(=O)NC[C@H](NC(=O)c1ccc(CCCC)cc1)C(=O)N[C@@H](CC(C)C)B(O)O` [E.5.10, Boronic acid, [(1R)-1-[[(2S)-3-(hexanoylamino)-2-[(4-butylbenzoylamino)]-1-oxopropyl]amino]-3-methylbutyl]]: the IC50 in data set [1] is below 10 nM. Besides, the EC50 in data set [2] (setting [3]) is below 200 nM.

The compound `CCCCCCCCCC(=O)N[C@@H](CNS(=O)(=O)c1ccc(F)cc1)C(=O)N[C@@H](CC(C)C)B(O)O` [E.5.12, Boronic acid, [(1R)-1-[[(2S)-3-[4-fluoro-benzenesulfonamide]-2-[(decanoyl)amino]-1-oxopropyl]amino]-3-methylbutyl]] displayed a half-inhibitory concentration (IC50) in data set [1] below 10 nM. The EC50 in data set [2] (setting [3]) is below 200 nM.

With `CCCCCCCCCC(=O)N[C@@H](CNC(=O)CCCCC)C(=O)N[C@@H](CC(C)C)B(O)O` [E.5.13, Boronic acid, [(1R)-1-[[(2S)-3-(hexanonylamino)-2-[(decanoylamino)]-1-oxopropyl]amino]-3-methylbutyl]], the half-maximal inhibitory concentration (IC50) in data set [1] was below 10 nM. Besides, the EC50 in data set [2] (setting [3]) is below 200 nM.

`CCCCc1ccc(C(=O)N[C@@H](CNC(=O)c2cccnc2)C(=O)N[C@@H](CC(C)C)B(O)O)cc1` [E.5.18, Boronic acid, [(1R)-1-[[(2S)-3-(nicotinoylamino)-2-[(4-butylbenzoylamino)]-1-oxopropyl]amino]-3-methylbutyl]] had an IC50 in data set [1] below 10 nM. The concentration giving a half-maximal response (EC50) in data set [2] (setting [3]) was below 200 nM.

`CCCCc1ccc(C(=O)N[C@@H](CNC(=O)Nc2ccccc2)C(=O)N[C@@H](CC(C)C)B(O)O)cc1` [E.5.19, Boronic acid, [(1R)-1-[[(2S)-3-(3-phenylureido)-2-(4-butylbenzoylamino)-1-oxopropyl]amino]-3-methylbutyl]] had an IC50 in data set [1] below 10 nM. Further, in data set [2] (setting [3]), the concentration for a half-maximal effect (EC50) is below 200 nM.

Consider `CCCCCCCCCC(=O)N[C@@H](CNC(=O)Nc1ccccc1)C(=O)N[C@@H](CC(C)C)B(O)O` [E.5.21, Boronic acid, [(1R)-1-[[(2S)-3-(3-phenylureido)-2-(decanoylamino)-1-oxopropyl]amino]-3-methylbutyl]], for which, in data set [1], the IC50 is below 10 nM. In data set [2] (setting [3]), the concentration for a half-maximal effect (EC50) was below 200 nM.

`CCCCc1ccc(C(=O)N[C@@H](CNC(=O)c2cc(C)nn2C)C(=O)N[C@@H](CC(C)C)B(O)O)cc1` [E.5.29, Boronic acid, [(1R)-1-[[(2S)-3-(4-(1,3-dimethyl-1H-pyrazole-5-carbonylamino]-2-[(4-butylbenzoyl)amino]-1-oxopropyl]amino]-3-methylbutyl] hydrochloride]: the half-maximal inhibitory concentration (IC50) in data set [1] was below 10 nM. In addition, the 50% effective concentration (EC50) in data set [2] (read-out: MOLT4 (EC50); assay of Example E, inhibition of MOLT4) was below 200 nM.

On to `CCCCc1ccc(C(=O)N[C@@H](CNC(=O)c2ccc(-n3cncn3)cc2)C(=O)N[C@@H](CC(C)C)B(O)O)cc1` [E.5.40, Boronic acid, [(1R)-1-[[(2S)-3-(4-(1H-1,2,4-triazol-1-yl)benzoylamide)]-2-[(4-butylbenzoyl)amino]-1H-oxopropyl]amino]-3-methylbutyl] hydrochloride], for which, in data set [1], the IC50 is below 10 nM. For the same compound, in data set [2] (setting [3]), the EC50 was below 200 nM.

In data set [1], `CCCCc1ccc(C(=O)N[C@H](CNC(=O)c2ccc(C)cc2)C(=O)N[C@@H](CC(C)C)B(O)O)cc1` [E.5.41] yielded an IC50 below 100 nM. For the same compound, the 50% effective concentration (EC50) in data set [2] (setting [3]) was below 200 nM.

As for `CCCCc1ccc(C(=O)N[C@H](C(=O)N[C@@H](CC(C)C)B2OC3(CCCCC3)C3(CCCCC3)O2)[C@@H](C)O)cc1` [F.2.1, 4-Butylbenzamide, N-[(1S,2R)-1-[[[(1R)-1-[13,15-dioxa-14-bora-dispiro[5.0.5.3]pentadec-14-yl]-3-methylbutyl]amino]carbonyl]-2-hydroxypropyl]-], the IC50 in data set [1] was below 100 nM. The concentration giving a half-maximal response (EC50) in data set [2] (setting [3]) is 200 to 2000 nM.

As to “Boronic acid, [(1R)-1-[[(2S)-5- [[imino(nitroamino)methyl]amino]-2-[(hexahydro- 2,5-methanopentalene-3a(1H)-carbonyl)amino]-1- oxopentyl]amino]-3-methylbutyl] [E.2.24]”, the IC50 in data set [1] was below 10 nM. Also, the half-maximal effective concentration (EC50) in data set [2] (setting [3]) is above 10000 nM.

As for “Boronic acid, [(1R)-1-[[(2S)-5- [[imino(nitroamino)methyl]amino]-2-[[(thiophene- 2-sulfonyl)acetyl]amino]-1-oxopentyl]amino]-3- methylbutyl] [E.2.69]”, the IC50 in data set [1] is below 10 nM. In addition, the EC50 in data set [2] (setting [3]) is above 10000 nM.
